# In patent publication US9580416B2, “Inhibitors of Bruton's tyrosine kinase” (PHARMACYCLICS LLC, priority 2014, dated 2017):
# How the values were obtained:
# Format in all cases: biochemical
# [1] = target: EGFR (Homo sapiens, UniProt P00533); assay: Inhibition of a panel of kinases, in vitro HotSpot kinase assay: EGFR
# Procedure: The degree of inhibition of a panel of kinases is determined using the in vitro HotSpot kinase assay (purified enzymes, ^33P-ATP, an appropriate substrate and 1 uM ATP).
# [2] = target: Lck (Homo sapiens, UniProt P06239); assay: Lck kinase activity, TR-FRET assay; conditions: read-out: LCK (IC50)
# Sequence of Lck (P06239 whole entry, species assumed): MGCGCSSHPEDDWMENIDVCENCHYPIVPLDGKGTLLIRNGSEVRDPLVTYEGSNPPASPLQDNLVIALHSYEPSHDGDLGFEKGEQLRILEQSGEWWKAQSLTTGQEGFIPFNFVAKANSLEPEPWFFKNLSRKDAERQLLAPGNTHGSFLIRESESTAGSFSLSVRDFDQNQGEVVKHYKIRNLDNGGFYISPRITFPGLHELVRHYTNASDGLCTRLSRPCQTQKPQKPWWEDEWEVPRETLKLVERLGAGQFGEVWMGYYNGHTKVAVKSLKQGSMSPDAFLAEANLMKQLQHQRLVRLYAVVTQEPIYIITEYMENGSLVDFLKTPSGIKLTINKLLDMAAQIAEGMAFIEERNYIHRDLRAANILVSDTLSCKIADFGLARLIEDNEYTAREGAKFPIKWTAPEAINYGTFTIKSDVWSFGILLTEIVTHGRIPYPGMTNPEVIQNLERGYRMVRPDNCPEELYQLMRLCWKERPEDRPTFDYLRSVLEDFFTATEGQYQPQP
# Procedure: Btk kinase activity is determined using a time-resolved fluorescence resonance energy transfer (TR-FRET) methodology. Measurements are performed in a reaction volume of 50 μL using 96-well assay plates. Kinase enzyme, inhibitor, ATP (at the Km for the kinase), and 1 […] (Biotin-AVLESEEELYSSARQ-NH2) are incubated in a reaction buffer composed of 20 mM Tris, 50 mM NaCl, MgCl2 (5-25 mM depending on the kinase), MnCl2 (0-10 mM), 1 mM DTT, 0.1 mM EDTA, 0.01% bovine serum albumin, 0.005% Tween-20, and 10% DMSO at pH 7.4 for one hour. The reaction is quenched by the addition of 1.2 equivalents of EDTA (relative to divalent cation) in 25 μL of 1× Lance buffer (Perkin-Elmer). Streptavidin-APC (Perkin-Elmer) and Eu-labeled p-Tyr100 antibody (Perkin-Elmer) in 1× Lance buffer are added in a 25 μL volume to give final concentrations of 100 nM and 2.5 nM, respectively, and the mixture is allowed to incubate for one hour. The TR-FRET signal is measured on a multimode plate reader with an excitation wavelength (λEx) of 330 nm and detection wavelengths (λEm) of 615 and 665 nm. Activity is determined by the ratio of the fluorescence at 665 nm to that at 615 nm. For each compound, enzyme activity is measured at various concentrations of compound. Negative control reactions are performed in the absence of inhibitor in replicates of six, and two no-enzyme controls are used to determine baseline fluorescence levels. Inhibition constants, Ki(app), ware obtained using the program BatchKi (Kuzmic et al. (2000), Anal. Biochem. 286:45-50). IC50s are obtained according to the equation: IC50={Ki(app)/(1+[ATP]/Km^ATP)}+[E]total/2;
# For all kinases, [ATP]=Km^ATP, [Btk]total=0.5 nM and [Lck]total=6 nM.
# [3] = target: Btk (Homo sapiens, UniProt Q06187); assay: Btk kinase activity, TR-FRET assay; conditions: read-out: Btk (IC50)
# Sequence of Btk (Q06187 whole entry): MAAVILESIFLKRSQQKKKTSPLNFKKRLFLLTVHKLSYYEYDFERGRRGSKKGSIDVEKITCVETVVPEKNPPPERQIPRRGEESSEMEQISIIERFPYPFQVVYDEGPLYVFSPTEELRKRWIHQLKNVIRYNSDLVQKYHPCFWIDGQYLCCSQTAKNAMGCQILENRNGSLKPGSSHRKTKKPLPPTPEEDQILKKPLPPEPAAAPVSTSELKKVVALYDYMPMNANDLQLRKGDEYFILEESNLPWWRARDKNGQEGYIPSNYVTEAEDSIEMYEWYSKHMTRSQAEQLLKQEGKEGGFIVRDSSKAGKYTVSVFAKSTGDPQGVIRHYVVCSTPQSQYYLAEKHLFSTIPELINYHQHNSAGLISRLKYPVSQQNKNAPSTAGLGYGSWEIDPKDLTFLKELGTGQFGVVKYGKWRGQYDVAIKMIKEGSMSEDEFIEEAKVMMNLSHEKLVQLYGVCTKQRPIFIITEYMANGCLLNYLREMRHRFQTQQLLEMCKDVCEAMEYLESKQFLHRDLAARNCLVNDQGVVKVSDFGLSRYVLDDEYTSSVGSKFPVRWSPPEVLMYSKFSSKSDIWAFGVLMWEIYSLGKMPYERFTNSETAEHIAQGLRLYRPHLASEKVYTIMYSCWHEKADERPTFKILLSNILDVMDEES
# How it was run: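 Enzyme (Btk 0.5 nM; Lck 6 nM) reacted 1 h with inhibitor, ATP at Km and biotin-peptide substrate in pH 7.4 buffer, 10% DMSO. Phosphopeptide detected by Eu-p-Tyr100 antibody plus streptavidin-APC (665/615 nm). IC50 calculated from fitted Ki(app) via ATP/Km correction plus half total enzyme.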
# Sequence of EGFR (P00533 25-1210): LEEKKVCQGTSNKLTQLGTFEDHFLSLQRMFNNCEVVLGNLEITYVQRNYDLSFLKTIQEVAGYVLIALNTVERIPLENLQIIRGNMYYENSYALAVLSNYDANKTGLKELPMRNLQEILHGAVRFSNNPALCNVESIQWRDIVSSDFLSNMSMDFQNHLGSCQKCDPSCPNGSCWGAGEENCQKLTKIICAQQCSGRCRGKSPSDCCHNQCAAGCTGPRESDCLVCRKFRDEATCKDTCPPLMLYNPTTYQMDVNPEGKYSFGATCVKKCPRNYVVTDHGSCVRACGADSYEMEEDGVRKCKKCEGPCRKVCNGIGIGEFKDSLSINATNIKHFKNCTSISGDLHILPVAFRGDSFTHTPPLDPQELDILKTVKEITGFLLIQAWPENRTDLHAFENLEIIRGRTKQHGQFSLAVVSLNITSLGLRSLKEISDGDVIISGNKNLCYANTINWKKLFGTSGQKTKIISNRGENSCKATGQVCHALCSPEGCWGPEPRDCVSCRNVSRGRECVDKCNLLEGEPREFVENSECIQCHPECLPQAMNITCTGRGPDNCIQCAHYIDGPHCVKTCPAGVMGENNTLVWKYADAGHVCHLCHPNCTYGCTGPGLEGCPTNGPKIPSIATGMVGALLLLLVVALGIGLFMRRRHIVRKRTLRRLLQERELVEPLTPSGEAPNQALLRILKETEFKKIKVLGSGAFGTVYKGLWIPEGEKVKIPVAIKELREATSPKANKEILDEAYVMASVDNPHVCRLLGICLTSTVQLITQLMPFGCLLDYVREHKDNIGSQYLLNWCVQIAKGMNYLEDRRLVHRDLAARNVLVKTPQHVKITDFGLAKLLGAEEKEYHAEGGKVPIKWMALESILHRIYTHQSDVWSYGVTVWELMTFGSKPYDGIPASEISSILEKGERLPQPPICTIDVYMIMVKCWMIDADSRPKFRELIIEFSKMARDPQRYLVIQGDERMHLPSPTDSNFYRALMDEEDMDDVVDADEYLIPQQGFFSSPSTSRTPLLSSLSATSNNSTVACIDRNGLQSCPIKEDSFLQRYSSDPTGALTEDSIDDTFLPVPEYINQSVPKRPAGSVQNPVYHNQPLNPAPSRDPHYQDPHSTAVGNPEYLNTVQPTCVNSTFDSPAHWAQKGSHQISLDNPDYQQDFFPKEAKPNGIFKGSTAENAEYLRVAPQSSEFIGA
IC50 [1],IC50 [2],IC50 [3],SMILES
> 10000 nM,1000 to 10000 nM,< 100 nM,"Cc1ccnc(NC(=O)c2ccc(Oc3ccnc4[nH]nc(N[C@@H]5CCCN(C(=O)C6(C)CCOCC6)C5)c34)cc2)c1 [compound 87, 4-[(3-{[(3R)-1-(4-methyloxane-4-carbonyl)piperidin-3-yl]amino}-1H-pyrazolo[3,4-b]pyridin-4-yl)oxy]-N-(4-methylpyridin-2-yl)benzamide]"
100 to 1000 nM,< 100 nM,< 100 nM,CC(=O)N1CC[C@@H](Nc2n[nH]c3nccc(Oc4ccc(Oc5ccccc5)cc4)c23)C1 [compound 46]
1000 to 10000 nM,100 to 1000 nM,< 100 nM,CCC(=O)N1CC[C@@H](Nc2n[nH]c3nccc(Nc4ccc(C(=O)Nc5cc(C(F)(F)F)ccn5)cc4)c23)C1 [compound 70]
1000 to 10000 nM,100 to 1000 nM,< 100 nM,"N#Cc1ccnc(NC(=O)c2ccc(Oc3ccnc4[nH]nc(N[C@@H]5CCCN(C(=O)C6CC6)C5)c34)cc2)c1 [compound 81, N-(4-cyanopyridin-2-yl)-4-[(3-{[(3R)-1-cyclopropanecarbonylpiperidin-3-yl]amino}-1H-pyrazolo[3,4-b]pyridin-4-yl)oxy]benzamide]"
> 10000 nM,> 10000 nM,1000 to 10000 nM,Cc1cccc2nc(-c3ccc(Oc4ccnc5[nH]nc(N[C@@H]6CCCN(C(=O)C7CCN(C)CC7)C6)c45)cc3)oc12 [compound 184]
100 to 1000 nM,100 to 1000 nM,< 100 nM,"CN(C/C=C/C(=O)N1CC[C@@H](Nc2n[nH]c3nccc(Oc4ccc(C(=O)Nc5cc(OC6CC6)ccn5)cc4)c23)C1)C1CC1 [compound 76, (R,E)-N-(4-cyclopropoxypyridin-2-yl)-4-(3-(1-(4-(cyclopropyl(methyl)amino)but-2-enoyl)pyrrolidin-3-ylamino)-1H-pyrazolo[3,4-b]pyridin-4-yloxy)benzamide]"
< 100 nM,< 100 nM,< 100 nM,"CN(C)C/C=C/C(=O)N1CC[C@@H](Oc2n[nH]c3nccc(Nc4ccc(Oc5ccccc5)cc4)c23)C1 [compound 14, (2E)-4-(dimethylamino)-1-[(3R)-3-({4-[(4-phenoxyphenyl)amino]-1H-pyrazolo[3,4-b]pyridin-3-yl}oxy)pyrrolidin-1-yl]but-2-en-1-one]"
> 10000 nM,> 10000 nM,100 to 1000 nM,"CN(C)C/C=C/C(=O)N1CC[C@@H](Nc2n[nH]c3nccc(Oc4ccn(Cc5ccccc5)c(=O)c4)c23)C1 [compound 15, 1-benzyl-4-[(3-{[(3R)-1-[(2E)-4-(dimethylamino)but-2-enoyl]pyrrolidin-3-yl]amino}-1H-pyrazolo[3,4-b]pyridin-4-yl)oxy]-1,2-dihydropyridin-2-one]"
100 to 1000 nM,100 to 1000 nM,< 100 nM,"N#C/C(=C\c1ccccn1)C(=O)N1CC[C@@H](Nc2n[nH]c3nccc(Oc4ccc(Oc5ccccc5)cc4)c23)C1 [compound 26, (2E)-2-[(E)-(3R)-3-{[4-(4-phenoxyphenoxy)-1H-pyrazolo[3,4-b]pyridin-3-yl]amino}pyrrolidine-1-carbonyl]-3-(pyridin-2-yl)prop-2-enenitrile]"
< 100 nM,100 to 1000 nM,< 100 nM,"N#C/C(=C\C1CC1)C(=O)N1CC[C@@H](Nc2n[nH]c3nccc(Oc4ccc(Oc5ccccc5)cc4)c23)C1 [compound 18, (2E)-3-cyclopropyl-2-[(E)-(3R)-{[4-(4-phenoxyphenoxy)-1H-pyrazolo[3,4-b]pyridin-3-yl]amino}pyrrolidine-1-carbonyl]prop-2-enenitrile]"
< 100 nM,100 to 1000 nM,100 to 1000 nM,CCC(=O)N1CCC[C@@H](Nc2n[nH]c3ncnc(Oc4ccc(Oc5ccccc5)cc4)c23)C1 [compound 51]
> 10000 nM,1000 to 10000 nM,< 100 nM,CN(C)c1ccnc(NC(=O)c2ccc(Oc3ccnc4[nH]nc(N[C@@H]5CCN(C(=O)/C=C/CN(C)C6CC6)C5)c34)cc2)c1 [compound 68]
> 10000 nM,1000 to 10000 nM,< 100 nM,"Cc1ccnc(NC(=O)c2ccc(Oc3ccnc4[nH]nc(N[C@@H]5CCCN(C(=O)N6CCOCC6)C5)c34)cc2)c1 [compound 91, N-(4-methylpyridin-2-yl)-4-[(3-{[(3R)-1-(morpholine-4-carbonyl)piperidin-3-yl]amino}-1H-pyrazolo[3,4-b]pyridin-4-yl)oxy]benzamide]"
> 10000 nM,1000 to 10000 nM,100 to 1000 nM,"CN(C)C/C=C/C(=O)N1CC[C@@H](Nc2n[nH]c3nccc(O[C@H]4CCN(c5ccccc5)C4)c23)C1 [compound 24, (2E)-4-(dimethylamino)-1-[(3R)-3-[(4-{[(3S)-1-phenylpyrrolidin-3-yl]oxy}-1H-pyrazolo[3,4-b]pyridin-3-yl)amino]pyrrolidin-1-yl]but-2-en-1-one]"
1000 to 10000 nM,1000 to 10000 nM,< 100 nM,CN(C/C=C/C(=O)N1CC[C@@H](Nc2n[nH]c3nccc(Oc4ccc(C(=O)Nc5cc(C#N)ccn5)cc4)c23)C1)C1CC1 [compound 62]
1000 to 10000 nM,100 to 1000 nM,< 100 nM,CN(C/C=C/C(=O)N1CC[C@@H](Nc2n[nH]c3nccc(Oc4ccc(C(=O)Nc5cc(C6CC6)ccn5)cc4)c23)C1)C1CC1 [compound 60]
> 10000 nM,> 10000 nM,100 to 1000 nM,CN(C/C=C/C(=O)N1CC[C@@H](Nc2n[nH]c3nccc(Oc4ccc(C(=O)Nc5ncc[nH]5)cc4)c23)C1)C1CC1 [compound 67]
1000 to 10000 nM,100 to 1000 nM,< 100 nM,CCC(=O)N1CC[C@@H](Oc2n[nH]c3nccc(Nc4ccc(C(=O)Nc5cc(C(F)(F)F)ccn5)cc4)c23)C1 [compound 71]
> 10000 nM,100 to 1000 nM,100 to 1000 nM,"CN1CCC(C(=O)N2CCC[C@@H](Nc3n[nH]c4nccc(Oc5ccc(-c6nc7ccccc7s6)cc5)c34)C2)CC1 [compound 197, (3R)-N-{4-[4-(1,3-benzothiazol-2-yl)phenoxy]-1H-pyrazolo[3,4-b]pyridin-3-yl}-1-(1-methylpiperidine-4-carbonyl)piperidin-3-amine]"
100 to 1000 nM,100 to 1000 nM,1000 to 10000 nM,"N#Cc1cc(Nc2n[nH]c3nccc(Oc4ccc(Oc5ccccc5)cc4)c23)ccn1 [compound 30, 4-{[4-(4-phenoxyphenoxy)-1H-pyrazolo[3,4-b]pyridin-3-yl]amino}pyridine-2-carbonitrile]"
< 100 nM,100 to 1000 nM,< 100 nM,"CNC(=O)/C(C#N)=C\c1cccc(Nc2n[nH]c3nccc(Oc4ccc(Oc5ccccc5)cc4)c23)c1 [compound 29, (2Z)-2-cyano-N-methyl-3-(3-{[4-(4-phenoxyphenoxy)-1H-pyrazolo[3,4-b]pyridin-3-yl]amino}phenyl)prop-2-enamide]"
1000 to 10000 nM,100 to 1000 nM,< 100 nM,CN(C/C=C/C(=O)N1CCCC[C@H]1CNc1n[nH]c2nccc(Oc3ccc(Oc4ccccc4)cc3)c12)C1CC1 [compound 37]
1000 to 10000 nM,100 to 1000 nM,< 100 nM,CC(C)c1ccnc(NC(=O)c2ccc(Oc3ccnc4[nH]nc(N[C@@H]5CCN(C(=O)/C=C/CN(C)C6CC6)C5)c34)cc2)c1 [compound 61]
